We go through 15 compounds from ChEMBL document CHEMBL3352263, “Synthesis and biological evaluation of bivalent cannabinoid receptor ligands based on hCB₂R selective benzimidazoles reveal unexpected intrinsic properties” (Bioorg Med Chem, 2014).

The target of assay [1] is T1, Cannabinoid receptor 2 (Homo sapiens, UniProt P34972). In words: Agonist activity at human CB2 receptor expressed in Sf9 cells coexpressing Galpha i2 assessed as Galpha GTPase activity using [gamma-33P]GTP at 100 uM by scintillation counting.
T1 sequence (P34972 whole entry): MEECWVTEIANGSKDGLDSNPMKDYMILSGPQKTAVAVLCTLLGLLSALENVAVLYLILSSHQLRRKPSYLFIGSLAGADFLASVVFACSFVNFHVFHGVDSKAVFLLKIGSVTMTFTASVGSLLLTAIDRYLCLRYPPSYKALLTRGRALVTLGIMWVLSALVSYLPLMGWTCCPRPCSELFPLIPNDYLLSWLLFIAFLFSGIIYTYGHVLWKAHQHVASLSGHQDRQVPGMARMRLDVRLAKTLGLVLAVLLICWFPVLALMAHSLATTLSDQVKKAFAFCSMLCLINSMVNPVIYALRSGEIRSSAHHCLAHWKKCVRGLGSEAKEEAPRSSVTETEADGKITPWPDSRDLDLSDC
Assay [2] deals with T1, Cannabinoid receptor 2. In words: Antagonist activity at human CB2 receptor expressed in Sf9 cells coexpressing Galpha i2 assessed as Galpha GTPase activity using [gamma-33P]GTP at 100 uM by scintillation counting in presence of 30 nM CP55940. It counts as functional.
Assay [3] concerns the target T2, Cannabinoid receptor 1 (Homo sapiens, UniProt P21554). In words: Agonist activity at human CB1 receptor expressed in Sf9 cells coexpressing Galpha i2 assessed as Galpha GTPase activity using [gamma-33P]GTP at 100 uM by scintillation counting.
Assay [4] deals with T2, Cannabinoid receptor 1. In words: Antagonist activity at human CB1 receptor expressed in Sf9 cells coexpressing Galpha i2 assessed as Galpha GTPase activity using [gamma-33P]GTP at 100 uM by scintillation counting in presence of 30 nM CP55940. It is filed as functional.
Assay [5] addresses T1, Cannabinoid receptor 2. Put plainly: Inverse agonist activity at human CB2 receptor expressed in Sf9 cells coexpressing Galpha i2 assessed as Galpha GTPase activity using [gamma-33P]GTP by scintillation counting in presence of CP55940.
The target in assay [6] is T2, Cannabinoid receptor 1. In words: Inverse agonist activity at human CB1 receptor expressed in Sf9 cells coexpressing Galpha i2 assessed as Galpha GTPase activity using [gamma-33P]GTP by scintillation counting in presence of CP55940.
In assay [7] the target is T1, Cannabinoid receptor 2. In words: Agonist activity at human CB2 receptor expressed in Sf9 cells coexpressing Galpha i2 assessed as Galpha GTPase activity using [gamma-33P]GTP by scintillation counting.
Assay [8] has as its target T2, Cannabinoid receptor 1. In words: Agonist activity at human CB1 receptor expressed in Sf9 cells coexpressing Galpha i2 assessed as Galpha GTPase activity using [gamma-33P]GTP by scintillation counting.
The next assay is filed under the species Homo sapiens. Put plainly: Selectivity ratio of EC50 for human CB1 receptor to EC50 for human CB2 receptor.
The target in assay [9] is T1, Cannabinoid receptor 2. Put plainly: Antagonist activity at human CB2 receptor expressed in Sf9 cells coexpressing Galpha i2 assessed as Galpha GTPase activity using [gamma-33P]GTP by scintillation counting in presence of 30 nM CP55940. It counts as functional.

T2 sequence (P21554 whole entry): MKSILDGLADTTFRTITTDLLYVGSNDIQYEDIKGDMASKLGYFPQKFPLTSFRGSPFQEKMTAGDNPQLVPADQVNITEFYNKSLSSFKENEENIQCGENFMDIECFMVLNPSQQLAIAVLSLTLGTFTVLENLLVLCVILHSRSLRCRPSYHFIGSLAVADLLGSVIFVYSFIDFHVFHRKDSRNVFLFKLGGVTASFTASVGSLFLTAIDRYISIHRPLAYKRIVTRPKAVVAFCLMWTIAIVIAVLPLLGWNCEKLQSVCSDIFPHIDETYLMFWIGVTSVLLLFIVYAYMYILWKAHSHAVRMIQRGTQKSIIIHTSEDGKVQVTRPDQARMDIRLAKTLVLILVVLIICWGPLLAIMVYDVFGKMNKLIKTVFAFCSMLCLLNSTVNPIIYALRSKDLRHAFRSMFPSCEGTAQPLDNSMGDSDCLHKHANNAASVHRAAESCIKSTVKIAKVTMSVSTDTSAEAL

On to `CCOc1ccc(Cc2nc3cc(C(=O)NCCCN(C)C)ccc3n2CCC(C)C)cc1`, for which the Emax on Cannabinoid receptor 2 [1] is 11%; on Cannabinoid receptor 2 [2], 65%; at Cannabinoid receptor 1 [3] it was -5%; on Cannabinoid receptor 1 [4], 71%.
As to `CCOc1ccc(Cc2nc3cc(C(=O)NCCCCCCCCCCN(C)C)ccc3n2CCC(C)C)cc1`, the Emax was 0% at Cannabinoid receptor 2 [1], 20% at Cannabinoid receptor 2 [2] and -58% on Cannabinoid receptor 1 [3]. The concentration for a half-maximal effect (EC50) is 19.5 µM on Cannabinoid receptor 2 [5] and 24 µM at Cannabinoid receptor 1 [6].
As for `COc1ccc(C(=O)c2c(C)n(CCN3CCOCC3)c3cc(I)ccc23)cc1`, the Emax at Cannabinoid receptor 2 [1] stood at 5%; at Cannabinoid receptor 2 [2], 15%. For the same compound, the EC50 on Cannabinoid receptor 2 [5] was 0.603 µM.
As for `Cc1c(C(=O)NN2CCCCC2)nn(-c2ccc(Cl)cc2Cl)c1-c1ccc(I)cc1`, the Emax at Cannabinoid receptor 1 [3] was -84%; on Cannabinoid receptor 1 [4] it was -8%.
As for `CCOc1ccc(Cc2nc3cc(C(=O)NCCCCCCCCCCN(C)CCCCCCCCCCNC(=O)c4ccc5c(c4)nc(Cc4ccc(OCC)cc4)n5CCC(C)C)ccc3n2CCC(C)C)cc1`, the Emax at Cannabinoid receptor 2 [1] is 3%; at Cannabinoid receptor 2 [2] it was 28%; on Cannabinoid receptor 1 [3], -42%. Besides, the concentration for a half-maximal effect (EC50) on Cannabinoid receptor 2 [5] is 16.6 µM; at Cannabinoid receptor 1 [6], 25.7 µM.
Take `CCOc1ccc(Cc2nc3cc(C(=O)NCCCN(C)CCCNC(=O)c4ccc5c(c4)nc(Cc4ccc(OCC)cc4)n5CCC(C)C)ccc3n2CCC(C)C)cc1`: the Emax at Cannabinoid receptor 2 [1] is -11%; at Cannabinoid receptor 2 [2], -32%; at Cannabinoid receptor 1 [3], -83%. Moreover, the half-maximal effective concentration (EC50) at Cannabinoid receptor 2 [5] is 2.88 µM; on Cannabinoid receptor 1 [6], 17.4 µM.
For the compound `CCOc1ccc(Cc2nc3cc(C(=O)N(CC)CC)ccc3n2CCCN(C)CCCn2c(Cc3ccc(OCC)cc3)nc3cc(C(=O)N(CC)CC)ccc32)cc1`, the Emax on Cannabinoid receptor 2 [1] is -2%; on Cannabinoid receptor 2 [2] it was 5%; at Cannabinoid receptor 1 [3], -43%. The results for the concentration for a half-maximal effect (EC50) on Cannabinoid receptor 2 [5] and on Cannabinoid receptor 1 [6] were 12 µM and 34.7 µM, respectively.
`CCCCn1c(Cc2ccc(OCC)cc2)nc2cc(C(=O)N(CC)CC)ccc21`: the Emax on Cannabinoid receptor 2 [1] worked out at 198%; at Cannabinoid receptor 2 [2], 162%; at Cannabinoid receptor 1 [3], 67%. The EC50 on Cannabinoid receptor 2 [7] was 0.174 µM; on Cannabinoid receptor 1 [8] it was 1.35 µM. In addition, in the assay filed under Homo sapiens, the Ratio EC50 came to 8.
As to `Cc1ccc(Cn2nc(C(=O)NC3C4(C)CCC(C4)C3(C)C)cc2-c2ccc(Cl)c(C)c2)cc1` (stereo not given), the Emax on Cannabinoid receptor 2 [1] was -3%; on Cannabinoid receptor 2 [2] it was 9%.
`CCOc1ccc(Cc2nc3cc(C(=O)OC)ccc3n2CCC(C)C)cc1`: the Emax was 37% at Cannabinoid receptor 2 [1], 121% at Cannabinoid receptor 2 [2], -3% on Cannabinoid receptor 1 [3] and 98% at Cannabinoid receptor 1 [4]. For the same compound, the half-maximal effective concentration (EC50) at Cannabinoid receptor 2 [7] is 0.295 µM.
As to `CCOc1ccc(Cc2nc3cc(C(=O)N(CC)CC)ccc3n2CCCN(C)C)cc1`, the Emax was 106% at Cannabinoid receptor 2 [1], 69% on Cannabinoid receptor 2 [2], -3% on Cannabinoid receptor 1 [3] and 95% at Cannabinoid receptor 1 [4]. Moreover, the EC50 on Cannabinoid receptor 2 [9] was 12.6 µM.
On to `CCOc1ccc(Cc2nc3cc(C(=O)N(CC)CC)ccc3n2CCCCCCCCCCN(C)C)cc1`, for which the Emax is 1% on Cannabinoid receptor 2 [1], 60% at Cannabinoid receptor 2 [2] and -55% at Cannabinoid receptor 1 [3]. The values for the concentration for a half-maximal effect (EC50) on Cannabinoid receptor 2 [5] and at Cannabinoid receptor 1 [6] were 31.6 µM and 25.1 µM, respectively.
As for `CCOc1ccc(Cc2nc3cc(C(=O)N(CC)CC)ccc3n2CCC(C)C)cc1`, the Emax on Cannabinoid receptor 2 [1] was found to be 192%; on Cannabinoid receptor 2 [2], 167%; at Cannabinoid receptor 1 [3], 48%. Also, at Cannabinoid receptor 1 [8], the concentration giving a half-maximal response (EC50) is 3.24 µM.
As to `CCOc1ccc(Cc2nc3cc(C(=O)N(CC)CC)ccc3n2CCCCCCCCCCN(C)CCCCCCCCCCn2c(Cc3ccc(OCC)cc3)nc3cc(C(=O)N(CC)CC)ccc32)cc1`, the Emax at Cannabinoid receptor 2 [1] is -11%; at Cannabinoid receptor 2 [2], -33%; on Cannabinoid receptor 1 [3], -97%. The 50% effective concentration (EC50) is 6.61 µM on Cannabinoid receptor 2 [5] and 6.31 µM on Cannabinoid receptor 1 [6].
In the case of `CCOc1ccc(Cc2nc3cc(C(=O)N(CC)CC)ccc3n2CCCCN(C)CCCCn2c(Cc3ccc(OCC)cc3)nc3cc(C(=O)N(CC)CC)ccc32)cc1`, the Emax at Cannabinoid receptor 2 [1] was 5%; at Cannabinoid receptor 2 [2] it was 14%; at Cannabinoid receptor 1 [3], -40%. Moreover, the EC50 at Cannabinoid receptor 2 [5] is 57.5 µM.
